Tested on: MV-4-11 cells
Assay: Gene expression microarray analysis (Affymetrix PrimeView) and GSEA
Assay type: cell-based, human
Set-up: RFU PODN (11730768_x_at) / Fold change /veh PODN (11730768_x_at) / RFU LINC00158 (11744669_a_at) / Fold change /veh LINC00158 (11744669_a_at) / RFU DUSP10 (11751237_a_at) / Fold change /veh DUSP10 (11751237_a_at) / RFU ID3 (11757404_x_at) / Fold change /veh ID3 (11757404_x_at) / RFU PLEKHG5 (11737974_s_at) / Fold change /veh PLEKHG5 (11737974_s_at) / RFU LRRC4B (11730491_at) / Fold change /veh LRRC4B (11730491_at) / RFU GIMAP4 (11747438_a_at) / Fold change /veh GIMAP4 (11747438_a_at) / RFU KRT8 (11758183_x_at) / Fold change /veh KRT8 (11758183_x_at) / RFU CNN1 (11734310_a_at) / Fold change /veh CNN1 (11734310_a_at) / RFU VPS37D (11726825_at) / Fold change /veh VPS37D (11726825_at) / RFU C10orf10 (11716522_x_at) / Fold change /veh C10orf10 (11716522_x_at) / RFU KIR2DL2 /// KIR2DL4 /// KIR2DL5A /// KIR2DL5B /// KIR2DS1 /// KIR2DS2 /// KIR2DS3 /// KIR2DS4 /// KIR3DL3 /// KIR3DL3 /// KIR3DS1 (11738374_at) / Fold change /veh KIR2DL2 /// KIR2DL4 /// KIR2DL5A /// KIR2DL5B /// KIR2DS1 /// KIR2DS2 /// KIR2DS3 /// KIR2DS4 /// KIR3DL3 /// KIR3DL3 /// KIR3DS1 (11738374_at) / RFU C1QL1 (11718748_at) / Fold change /veh C1QL1 (11718748_at) / RFU TMPRSS4 (11747572_a_at) / Fold change /veh TMPRSS4 (11747572_a_at) / RFU HAMP (11756126_x_at) / Fold change /veh HAMP (11756126_x_at) / RFU RNFT2 (11725882_a_at) / Fold change /veh RNFT2 (11725882_a_at) / RFU NR4A2 (11747474_a_at) / Fold change /veh NR4A2 (11747474_a_at) / RFU ABCC12 (11746883_a_at) / Fold change /veh ABCC12 (11746883_a_at) / RFU TMEM136 (11760407_x_at) / Fold change /veh TMEM136 (11760407_x_at) / RFU CLDN22 /// WWC2 (11732394_at) / Fold change /veh CLDN22 /// WWC2 (11732394_at) / RFU HLA-DPB1 (11760878_x_at) / Fold change /veh HLA-DPB1 (11760878_x_at) / RFU SPINT1 (11716480_a_at) / Fold change /veh SPINT1 (11716480_a_at) / RFU GAP43 (11754022_s_at) / Fold change /veh GAP43 (11754022_s_at) / RFU A4GNT (11735810_at) / Fold change /veh A4GNT (11735810_at) / RFU PRB3 (11715151_x_at) / Fold change /veh PRB3 (11715151_x_at) / RFU TUBB4B (11761932_at) / Fold change /veh TUBB4B (11761932_at) / RFU CAPN14 (11732068_a_at) / Fold change /veh CAPN14 (11732068_a_at) / RFU TMCC2 (11721928_a_at) / Fold change /veh TMCC2 (11721928_a_at) / RFU IRGQ (11745062_a_at) / Fold change /veh IRGQ (11745062_a_at) / RFU FAM174B (11720279_a_at) / Fold change /veh FAM174B (11720279_a_at) / RFU TMPRSS4 (11748680_a_at) / Fold change /veh TMPRSS4 (11748680_a_at) / RFU FAM212B (11763350_a_at) / Fold change /veh FAM212B (11763350_a_at) / RFU PLEKHG5 (11743358_a_at) / Fold change /veh PLEKHG5 (11743358_a_at) / RFU ZSCAN30 (11745921_a_at) / Fold change /veh ZSCAN30 (11745921_a_at) / RFU CMKLR1 (11741424_a_at) / Fold change /veh CMKLR1 (11741424_a_at) / RFU LOC101060620 /// MAPK8IP1 (11723275_at) / Fold change /veh LOC101060620 /// MAPK8IP1 (11723275_at) / RFU SPTSSB (11747773_x_at) / Fold change /veh SPTSSB (11747773_x_at) / RFU PRSS12 (11739890_at) / Fold change /veh PRSS12 (11739890_at) / RFU BIN1 (11741810_x_at) / Fold change /veh BIN1 (11741810_x_at) / RFU WNT11 (11732464_a_at) / Fold change /veh WNT11 (11732464_a_at) / RFU C10orf10 (11716521_a_at) / Fold change /veh C10orf10 (11716521_a_at) / RFU C5orf56 (11738089_at) / Fold change /veh C5orf56 (11738089_at) / RFU CYB561 (11721691_x_at) / Fold change /veh CYB561 (11721691_x_at) / RFU ANKRD19P (11752326_a_at) / Fold change /veh ANKRD19P (11752326_a_at) / RFU OR2T12 /// OR2T33 /// OR2T8 (11738714_s_at) / Fold change /veh OR2T12 /// OR2T33 /// OR2T8 (11738714_s_at) / RFU VCAN (11748164_a_at) / Fold change /veh VCAN (11748164_a_at) / RFU JSRP1 (11732532_at) / Fold change /veh JSRP1 (11732532_at) / RFU KRTAP10-11 (11738290_x_at) / Fold change /veh KRTAP10-11 (11738290_x_at) / RFU MYO3A (11730013_a_at) / Fold change /veh MYO3A (11730013_a_at) / RFU EBF3 (11725865_a_at) / Fold change /veh EBF3 (11725865_a_at) / RFU CAMK2N1 (11719241_x_at) / Fold change /veh CAMK2N1 (11719241_x_at) / RFU C5orf56 (11738088_a_at) / Fold change /veh C5orf56 (11738088_a_at) / RFU OLFML3 (11715873_a_at) / Fold change /veh OLFML3 (11715873_a_at) / RFU LOC100653217 /// NTM (11731650_a_at) / Fold change /veh LOC100653217 /// NTM (11731650_a_at) / RFU MAPK11 (11762145_a_at) / Fold change /veh MAPK11 (11762145_a_at) / RFU FIZ1 (11724087_x_at) / Fold change /veh FIZ1 (11724087_x_at) / RFU OASL (11726364_x_at) / Fold change /veh OASL (11726364_x_at) / RFU SOX15 (11748057_x_at) / Fold change /veh SOX15 (11748057_x_at) / RFU CD79A (11719716_a_at) / Fold change /veh CD79A (11719716_a_at) / RFU HIST1H1D (11736915_at) / Fold change /veh HIST1H1D (11736915_at) / RFU CASKIN2 (11723855_a_at) / Fold change /veh CASKIN2 (11723855_a_at) / RFU LOC730098 (11760151_x_at) / Fold change /veh LOC730098 (11760151_x_at) / RFU OR4N2 (11742367_at) / Fold change /veh OR4N2 (11742367_at) / RFU PRRT2 (11749266_a_at) / Fold change /veh PRRT2 (11749266_a_at) / RFU SNX32 (11753110_a_at) / Fold change /veh SNX32 (11753110_a_at) / RFU CDHR5 (11726645_a_at) / Fold change /veh CDHR5 (11726645_a_at) / RFU RCAN1 (11760418_a_at) / Fold change /veh RCAN1 (11760418_a_at) / RFU FAM167A (11723789_a_at) / Fold change /veh FAM167A (11723789_a_at) / RFU FAM26E (11764081_at) / Fold change /veh FAM26E (11764081_at) / RFU ISYNA1 (11749810_s_at) / Fold change /veh ISYNA1 (11749810_s_at) / RFU ACY1 (11761880_at) / Fold change /veh ACY1 (11761880_at) / RFU 11764098_at / Fold change /veh 11764098_at / RFU SAMD14 (11745864_x_at) / Fold change /veh SAMD14 (11745864_x_at) / RFU NPB (11741838_a_at) / Fold change /veh NPB (11741838_a_at) / RFU TMPRSS6 (11731388_a_at) / Fold change /veh TMPRSS6 (11731388_a_at) / RFU KRTAP10-2 (11738614_at) / Fold change /veh KRTAP10-2 (11738614_at) / RFU ARHGAP8 /// PRR5-ARHGAP8 (11727945_x_at) / Fold change /veh ARHGAP8 /// PRR5-ARHGAP8 (11727945_x_at) / RFU KRTAP5-7 /// NADSYN1 (11734609_at) / Fold change /veh KRTAP5-7 /// NADSYN1 (11734609_at) / RFU RASL12 (11751679_a_at) / Fold change /veh RASL12 (11751679_a_at) / RFU CDKN2B (11736163_a_at) / Fold change /veh CDKN2B (11736163_a_at) / RFU PRF1 (11729649_at) / Fold change /veh PRF1 (11729649_at) / RFU, ZNF638 /// ZNF638-IT1 / Fold change vs veh, ZNF638 /// ZNF638-IT1 / RFU, PANK3 / Fold change vs veh, PANK3 / RFU, SH3YL1 / Fold change vs veh, SH3YL1 / RFU, ZEB2 / Fold change vs veh, ZEB2 / RFU, NRIP1 / Fold change vs veh, NRIP1 / RFU, PTTG1IP / Fold change vs veh, PTTG1IP / RFU, CAPN2 / Fold change vs veh, CAPN2 / RFU, MED14 / Fold change vs veh, MED14 / RFU, SNORA58 / Fold change vs veh, SNORA58 / RFU, C1orf63 / Fold change vs veh, C1orf63 / RFU, LRRFIP1 / Fold change vs veh, LRRFIP1 / RFU, NDUFAF7 / Fold change vs veh, NDUFAF7 / RFU, SLC12A2 / Fold change vs veh, SLC12A2 / RFU, IBTK / Fold change vs veh, IBTK / RFU, ESF1 / Fold change vs veh, ESF1 / Fold change vs veh, TMEM50B / RFU, TAOK1 / Fold change vs veh, TAOK1 / RFU, ACBD3 / Fold change vs veh, ACBD3 / RFU, TMA16 / Fold change vs veh, TMA16 / RFU, RWDD3 / Fold change vs veh, RWDD3 / RFU, BCAT1 / Fold change vs veh, BCAT1 / RFU, EDEM3 / Fold change vs veh, EDEM3 / RFU, TMEM33 / Fold change vs veh, TMEM33 / RFU, WDR75 / Fold change vs veh, WDR75 / RFU, AHCTF1 / Fold change vs veh, AHCTF1 / RFU, TFRC / Fold change vs veh, TFRC / RFU, ZDHHC17 / Fold change vs veh, ZDHHC17 / RFU, NOM1 / Fold change vs veh, NOM1 / RFU, ARL8B / Fold change vs veh, ARL8B / RFU, ZBTB11 / Fold change vs veh, ZBTB11 / RFU, TAMM41 / Fold change vs veh, TAMM41 / RFU, KIAA1704 /// LOC100996395 / Fold change vs veh, KIAA1704 /// LOC100996395 / RFU, ING1 / Fold change vs veh, ING1 / RFU, TRMT61B / Fold change vs veh, TRMT61B / RFU, FUBP3 / Fold change vs veh, FUBP3 / RFU, TP53 / Fold change vs veh, TP53 / RFU, TNKS2 / Fold change vs veh, TNKS2 / RFU, ZFP14 / Fold change vs veh, ZFP14 / RFU, ACTR2 / Fold change vs veh, ACTR2 / RFU, PPP3R1 / Fold change vs veh, PPP3R1 / RFU, PIK3R1 / Fold change vs veh, PIK3R1 / RFU, HNRNPA1 / Fold change vs veh, HNRNPA1 / RFU, RNF170 / Fold change vs veh, RNF170 / RFU, ZNF28 / Fold change vs veh, ZNF28 / RFU, RNGTT / Fold change vs veh, RNGTT / RFU, OGT / Fold change vs veh, OGT / RFU, BRD1 / Fold change vs veh, BRD1 / RFU, MARS / Fold change vs veh, MARS / RFU, ZNF655 / Fold change vs veh, ZNF655 / RFU, FAHD1 / Fold change vs veh, FAHD1 / RFU, BDP1 / Fold change vs veh, BDP1 / RFU, LRRCC1 / Fold change vs veh, LRRCC1 / RFU, ARID1A / Fold change vs veh, ARID1A / RFU, ZNF146 / Fold change vs veh, ZNF146 / RFU, ZNF330 / Fold change vs veh, ZNF330 / RFU, GPN3 / Fold change vs veh, GPN3 / RFU, C9orf123 / Fold change vs veh, C9orf123 / RFU, N4BP2L2 / Fold change vs veh, N4BP2L2 / RFU, ARFIP1 / Fold change vs veh, ARFIP1 / RFU, FAM179B / Fold change vs veh, FAM179B / RFU, BCL10 / Fold change vs veh, BCL10 / RFU, UHRF1BP1L / Fold change vs veh, UHRF1BP1L / RFU, BET1 / Fold change vs veh, BET1 / RFU, CNOT2 / Fold change vs veh, CNOT2 / RFU, ZNF268 / Fold change vs veh, ZNF268 / Fold change vs veh, ZNF507 / RFU, DGCR2 / Fold change vs veh, DGCR2 / RFU, WDSUB1 / Fold change vs veh, WDSUB1 / Fold change vs veh, HSP90B1 /// MIR3652 / RFU, ADSS / Fold change vs veh, ADSS / RFU, GK / Fold change vs veh, GK / RFU, ZNF148 / Fold change vs veh, ZNF148 / RFU, TAF9 / Fold change vs veh, TAF9 / RFU, SLC1A5 / Fold change vs veh, SLC1A5 / RFU, SLMO2 / Fold change vs veh, SLMO2 / RFU, ABCC4 / Fold change vs veh, ABCC4 / RFU, LOC101060439 /// RAP1B / Fold change vs veh, LOC101060439 /// RAP1B / RFU, RFX7 / Fold change vs veh, RFX7 / RFU, GTPBP10 / Fold change vs veh, GTPBP10 / RFU, CNEP1R1 / Fold change vs veh, CNEP1R1 / RFU, BIVM-ERCC5 /// ERCC5 / Fold change vs veh, BIVM-ERCC5 /// ERCC5 / RFU, ILF3 / Fold change vs veh, ILF3 / RFU 11762660_at / Fold change /veh 11762660_at / RFU VCAN (11757783_s_at) / Fold change /veh VCAN (11757783_s_at) / RFU DDX43 (11728927_at) / Fold change /veh DDX43 (11728927_at) / RFU KRT8 (11758188_x_at) / Fold change /veh KRT8 (11758188_x_at) / RFU NKD1 (11759106_at) / Fold change /veh NKD1 (11759106_at) / RFU SRD5A1 (11742802_a_at) / Fold change /veh SRD5A1 (11742802_a_at) / RFU TPSAB1 /// TPSB2 (11721975_s_at) / Fold change /veh TPSAB1 /// TPSB2 (11721975_s_at) / RFU GSTM3 (11746129_a_at) / Fold change /veh GSTM3 (11746129_a_at) / RFU IL23R (11737362_x_at) / Fold change /veh IL23R (11737362_x_at) / RFU TMEM51 (11727254_a_at) / Fold change /veh TMEM51 (11727254_a_at) / RFU PIWIL2 (11732686_x_at) / Fold change /veh PIWIL2 (11732686_x_at) / RFU ORM1 (11744905_x_at) / Fold change /veh ORM1 (11744905_x_at) / RFU CCDC152 (11743942_at) / Fold change /veh CCDC152 (11743942_at) / RFU ECM1 (11717891_a_at) / Fold change /veh ECM1 (11717891_a_at) / RFU IL23R (11748794_a_at) / Fold change /veh IL23R (11748794_a_at) / RFU TNFAIP8L3 (11732012_x_at) / Fold change /veh TNFAIP8L3 (11732012_x_at) / RFU MBOAT4 (11741988_at) / Fold change /veh MBOAT4 (11741988_at) / RFU 11764193_at / Fold change /veh 11764193_at / RFU TMEM53 (11763286_at) / Fold change /veh TMEM53 (11763286_at) / RFU MAGEB2 (11727129_at) / Fold change /veh MAGEB2 (11727129_at) / RFU TMEM200A (11744735_a_at) / Fold change /veh TMEM200A (11744735_a_at) / RFU CCDC152 (11751479_a_at) / Fold change /veh CCDC152 (11751479_a_at) / RFU FAM211A (11726209_a_at) / Fold change /veh FAM211A (11726209_a_at) / RFU RGS16 (11746705_a_at) / Fold change /veh RGS16 (11746705_a_at) / RFU VCAN (11755009_s_at) / Fold change /veh VCAN (11755009_s_at) / RFU RHOB (11743442_s_at) / Fold change /veh RHOB (11743442_s_at) / RFU RGS16 (11720943_a_at) / Fold change /veh RGS16 (11720943_a_at) / RFU RGS16 (11720944_at) / Fold change /veh RGS16 (11720944_at) / RFU, VPS4B / Fold change vs veh, VPS4B / RFU, CREB1 / Fold change vs veh, CREB1 / RFU, DNAJC13 / Fold change vs veh, DNAJC13 / RFU, GNAQ / Fold change vs veh, GNAQ / RFU, CDK5R1 / Fold change vs veh, CDK5R1 / RFU, ZRANB3 / Fold change vs veh, ZRANB3 / RFU, CUL4A / Fold change vs veh, CUL4A / RFU, CCNY / Fold change vs veh, CCNY / RFU, UFL1 / Fold change vs veh, UFL1 / RFU, COG3 / Fold change vs veh, COG3 / RFU, DIAPH2 / Fold change vs veh, DIAPH2 / RFU, SKA2 / Fold change vs veh, SKA2 / RFU, AFF3 / Fold change vs veh, AFF3 / RFU, LMF1 / Fold change vs veh, LMF1 / RFU, IPO11 / Fold change vs veh, IPO11 / RFU, DFFB / Fold change vs veh, DFFB / RFU, FOXP1 / Fold change vs veh, FOXP1 / RFU, CARD8 / Fold change vs veh, CARD8 / RFU, STRN3 / Fold change vs veh, STRN3 / RFU, ADK / Fold change vs veh, ADK / RFU, RASSF2 / Fold change vs veh, RASSF2 / RFU, WIPF1 / Fold change vs veh, WIPF1 / RFU, LARP1B / Fold change vs veh, LARP1B / RFU, RASA1 / Fold change vs veh, RASA1 / RFU, RB1 / Fold change vs veh, RB1 / RFU, PPFIA1 / Fold change vs veh, PPFIA1 / RFU, MAT2A / Fold change vs veh, MAT2A / RFU, CCT5 / Fold change vs veh, CCT5 / RFU, WDR92 / Fold change vs veh, WDR92 / RFU, CUX1 / Fold change vs veh, CUX1 / RFU, TTC7A / Fold change vs veh, TTC7A / RFU, TMEM135 / Fold change vs veh, TMEM135 / RFU, DEPTOR / Fold change vs veh, DEPTOR / RFU, CPM / Fold change vs veh, CPM / RFU, DNAJB6 / Fold change vs veh, DNAJB6 / RFU, CACNA2D3 / Fold change vs veh, CACNA2D3 / RFU, DTX4 / Fold change vs veh, DTX4 / RFU, TFCP2 / Fold change vs veh, TFCP2 / RFU, GMCL1 /// GMCL1P1 / Fold change vs veh, GMCL1 /// GMCL1P1 / RFU, AEBP2 / Fold change vs veh, AEBP2 / RFU, SNHG1 /// SNORD22 /// SNORD25 /// SNORD26 /// SNORD27 /// SNORD28 /// SNORD29 /// SNORD31 / Fold change vs veh, SNHG1 /// SNORD22 /// SNORD25 /// SNORD26 /// SNORD27 /// SNORD28 /// SNORD29 /// SNORD31 / Fold change (Aza/veh), C12orf56 (ProbeSet 11735607_a_at) / Fold change (ACY-1035/veh), C12orf56 (ProbeSet 11735607_a_at) / Fold change (Aza/veh), FGFR1OP (ProbeSet 11751329_s_at) / Fold change (ACY-1035/veh), FGFR1OP (ProbeSet 11751329_s_at) / Fold change (Aza/veh), VPS36 (ProbeSet 11739960_a_at) / Fold change (ACY-1035/veh), VPS36 (ProbeSet 11739960_a_at) / RFU SYPL1 (11715823_x_at) / Fold change /veh SYPL1 (11715823_x_at) / RFU IGFBP7 (11715501_s_at) / Fold change /veh IGFBP7 (11715501_s_at) / RFU REEP3 (11722064_at) / Fold change /veh REEP3 (11722064_at) / RFU IGLL1 (11728026_x_at) / Fold change /veh IGLL1 (11728026_x_at): dose or concentration left out as unconfirmed
Settings: MV-4-11 cells, 48 hours

Nc1ccc(-c2cccs2)cc1NC(=O)c1ccc2c(c1)cc(C1CC1)n2CCN1CCOCC1 [ACY-1035]
RFU VCAN (11755009_s_at): 8.96 RFU

From publication PMC5218480 (PLoS ONE, 2017)
